Assay results reported in patent publication US20230054895A1, “METHODS FOR INDUCING BIOSTASIS IN A CELL, TISSUE OR ORGAN” (PRESIDENT AND FELLOWS OF HARVARD COLLEGE, priority 2020, published 2023).
“Also recorded” adds a separate entry of the source. Structures can show the parent of a compound that is named as a salt. Where two headings read alike, the source gives them in different places.

How the values were obtained:
[1] = tested on: Xenopus tadpoles; assay: Oxygen consumption of Xenopus tadpoles and embryos; assay type: in vivo, Xenopus laevis
[2] = tested on: Xenopus tadpoles; assay type: in vivo; conditions: 50 uM for 30 min, recovery, tested over 24 h
Method: Tadpoles were then tested over a 24 h period in an automated behavior and cognitive testing platform to measure cognitive or motor function.
Finally, the cognitive and motor function performance of Xenopus tadpoles treated with Donepezil was assessed. […] Following the onset of stasis, the drug was removed and tadpoles were allowed to recover. Tadpoles were then tested over a 24 hour period in an automated behavior and cognitive testing platform to measure whether tadpoles that previously went through stasis had decreased cognitive and motor function performance.

[3] = tested on: Xenopus tadpoles; assay: Movement / swimming of Xenopus tadpoles (stasis and reversal); assay type: in vivo, Xenopus laevis
Method: This slowing of motion is reversible; average movement of the Xenopus tadpoles is returned to pre-treatment levels following removal of Donepezil. […] The drug is removed at 30 minutes, as indicated by the hash-line. Movement resumed within 50 min after drug removal.
To determine if this slowing of movement is reversible, the drug was removed from the culture medium after 30 minutes (denoted by the hashed-line). Movement resumed at the pre-treatment level within 50 min after drug removal.
The effects of SNC-80 and the NCX1 inhibitor KB-R7943 mesylate (also referred to herein as “WC-60) were evaluated alone and in combination. Tadpoles were exposed to SNC-80 at 25 μM for 24 hr continuously, and swimming was assessed. […] Similarly, no effect on oxygen consumption was observed when tadpoles were exposed to KB-R7943 mesylate at 35 uM for 24 h continuously (FIG. 25B).

[4] = tested on: Xenopus embryos
From the text: Developed tail length assay are used to assess embryo tail development during drug contact.
Automated embryo culture and imaging platform with machine vision processing. Analysis pipeline allows screening scale-up to hundreds of embryos at a given time.
The effects of ^2H2O on metabolism were examined in relation to biostasis in vivo. Xenopus embryos were contacted with 0.1×MMR media prepared with various concentrations of ^2H2O.

[5] = tested on: Caco-2 cells; assay: Intracellular ATP in Caco-2 cells; assay type: cell-based
[6] = tested on: Caco-2 cells; assay: Respiration / oxygen utilization in Caco-2 cells; assay type: cell-based
[7] = tested on: pig hind limb; assay: Pig hind limb ex vivo perfusion on ULiSSES Platform (biostasis of a pig limb)
Method: Protocol for Evaluating the Effect of an Agent on Inducing Biostasis of a Pig Limb.
The establishment of biostasis in a mammal according to the methods described herein was evaluated in a pig limb model. Prior to removing a hind limb from the animal, a pre-operation blood draw was preformed to obtain a baseline. The hind limb was removed via an amputation, and four muscle biopsies were immediately taken. For use in RT-PCR, a first biopsy was stored at −80° C. to preserve RNA integrity. For histology, a second biopsy was fixed in formalin and stored at 2-4° C. or at room temperature. For use in ELISA, a third biopsy was snap frozen and stored at −80° C. Finally, in lieu of Microdialysis, a fourth biopsy was snap frozen and stored at −80° C.
The limb was first flushed with 4° C. heparinized Krebs Henseleit Buffer alone. The limb was then weighed and attached to the ULiSSES Platform. The Platform was run subnormothermic relative to […] (e.g., 18-23° C.). During the protocol, the limb was perfused with buffer alone (control) or buffer with SNC-80. Further description of the ULiSSES Platform can be found on the world wide web at www.techbriefs.com/component/content/article/tb/stories/blog/35406.
Following the limb being attached to the platform (time 0 hour), an RNA-preserving biopsy, a formalin-fixed biopsy, and a snap frozen biopsy were taken, and a perfusate sample was also taken. The “perfusate sample” is a sample that is assessed for arterial and […] blood gases, and subjected to a blood chemistry panel to measure sodium, potassium, glucose, and lactate levels. The perfusate sample is further snap frozen for other analyses, including RNAseq and cytokine analysis.
These sampling steps were further repeated at times 3 hours, 6 hours, 12 hours, and 24 hours. At times 9 hours, 15 hours, 18 hours, and 21 hours, a perfusate sample was taken.
The protocol was completed at time 24 hours. The limb was removed from the ULiSSES Platform and weighed. Separate, proof of concept experiments were performed as described above, but were completed at time 6 hours.

[8] = tested on: Xenopus tadpoles; assay: Movement / swimming of Xenopus tadpoles (stasis and reversal); assay type: in vivo, Xenopus laevis; remark: listed apart in the source
[9] = tested on: Xenopus tadpoles; assay: Oxygen consumption of Xenopus tadpoles and embryos; assay type: in vivo, Xenopus laevis; remark: listed apart in the source
From the text: Dynamic drug dosing used to examine stasis control parameters (10 tadpoles/chamber, n=3 replicates).
The oxygen consumption assay described herein above was used.

[10] = tested on: mice; conditions: FIG. 1, Rawls and Cowan 2006; cited from earlier work
[11] = tested on: rats; conditions: via delta-2 opioid receptor; cited from earlier work
[12] = high doses; cited from earlier work
[13] = tested on: Caco-2 cells; assay: NAD/NADH live reporting in Caco-2 cells; assay type: cell-based; conditions: 100 uM, p<0.0005, comparable to positive control sodium oxamate
[14] = tested on: tadpoles; assay: Life span of tadpoles in low-oxygen environments; assay type: in vivo, Xenopus; conditions: 50% ^2H2O-treated tadpoles; MMR controls 6 hours
Method: At the indicated consumption rate, ^2H2O-treated tadpoles survive for >30 hours as compared to 6 hours for MMR controls.

[15] = tested on: Xenopus tadpoles; assay: Recovery from Donepezil-induced biostasis in tadpoles (tail length, oxygen consumption); assay type: in vivo; conditions: 50 mM kestose in MMR vs MMR alone
Method: To determine if an agent plays a role in accelerating recovery following induction of biostasis, tadpoles can be treated with a biostasis-inducing agent as described herein, to induce biostasis and then transferred to a medium containing a test agent, or just medium. Recovery is assessed by assessing development rate following recovery (e.g., by measuring tadpole tail length), movement, and oxygen consumption.

[16] = 25 μM SNC-80, 24 hr continuously
[17] = compared to control treated limb
[18] = perfusate, vs control treatment
[19] = prior to and following treatment
[20] = 50% ^2H2O, 4 days biostasis, 3 days of recovery

CCN(CC)CCCN(c1ccccc1)C1Cc2ccccc2C1 [Aprindine]
oxygen consumption of free swimming tadpoles ([1]; 25 uM, after 20 min of exposure, vs vehicle controls): decreased oxygen consumption

COc1cc2c(cc1OC)C(=O)C(CC1CCN(Cc3ccccc3)CC1)C2 (stereo not shown) [Donepezil, 2-((1-Benzylpiperidin-4-yl)methyl)-5,6-dimethoxy-2,3-dihydro-1H-inden-1-one]
cognitive performance [2]: may have slightly improved cognitive performance | time to slowing of motion after drug addition ([3]; 50 uM Donepezil): ≤ 10 min | time to resumption of movement after drug removal ([3]; 50 uM Donepezil removed at 30 minutes): ≤ 50 min | tail length ([4]; Xenopus tadpoles, compared to vehicle control or SNC-80): reduced tail length

N=C(N)SCCc1ccc(OCc2ccc([N+](=O)[O-])cc2)cc1 [KB-R7943 mesylate]
swimming ([3]; KB-R7943 mesylate, data not shown): decreased swimming | oxygen consumption in tadpoles ([1]; 35 μM KB-R7943 mesylate, 24 h continuously): no effect | oxygen consumption in tadpoles ([1]; 35 μM KB-R7943 mesylate, 24 h continuously, listed as KB-R7943 Mesylate): No change

Oc1ccc2c3c1O[C@H]1c4[nH]c5ccccc5c4C[C@@]4(O)[C@@H](C2)N(CC2CC2)CC[C@]314 [Naltrindole]
blocking of the stasis-inducing effects of SNC-80 ([1]; concentrations up to 100 uM, 4 h of exposure): does not block

C=CCN1C[C@H](C)N([C@H](c2ccc(C(=O)N(CC)CC)cc2)c2cccc(OC)c2)C[C@H]1C [SNC-80, (+)-4-[(αR)-α-((2S,5R)-4-Allyl-2,5-dimethyl-1-piperazinyl)-3-methoxybenzyl]-N,N-diethylbenzamide]
intracellular ATP [5]: reduction in intracellular ATP levels | intracellular ATP ([5]; listed as SNC80): reduces intracellular ATP | respiration / oxygen utilization [6]: did not inhibit oxygen utilization | respiration / oxygen utilization ([6]; listed as SNC80): respiration unchanged | induction of biostasis ([3]; 25 μM SNC-80): not sufficient to induce biostasis | swimming [3, 16]: normal swimming | reversibility of movement arrest ([3]; removal / withdrawal of the drug): reversed upon withdrawal of the drug; also recorded: reversed by removal of the drug | oxygen consumption in tadpoles [1, 16]: No change; also recorded: normal | oxygen consumption of embryos ([1]; Xenopus embryos, FIG. 7): reduces oxygen consumption | oxygen consumption in tadpoles ([1]; stasis inducing concentration of SNC-80 in combination with 100 uM Naltrindole): remains decreased | reduction of embryo length compared to control ([4]; 0.4 μM SNC-80 (n=5) vs control (n=6), end of dosing period t=48 h): 19.8% | embryo length after drug removed ([4]; 0.4 μM SNC-80, after drug removal): caught up to controls | relative metabolic rate in hind limb ([7]; 3 hours post treatment, slope vs control P<0.0001): marked reduction of metabolic rate; also recorded: noticeable reduction | oxygen uptake in hind limb ([7]; 10 hours post-treatment, vs control treated limb): noticeable reduction | oxygen uptake in hind limb ([7]; 24 hours post-treatment, vs control treated limb): marked reduction | change in mass of limb prior to and following treatment [7, 17]: larger change in a mass; also recorded: greater difference | oxygen uptake in hind limb [7, 17]: markedly reduces oxygen uptake | oxygen uptake levels relative to hypothermic conditions ([7]; data not shown): greater extent than hypothermic conditions | glucose level [7, 18]: No change; also recorded: not a marked difference | lactate level [7, 18]: No change; also recorded: not a marked difference | potassium level [7, 18]: No change; also recorded: not a marked difference | glycogen content inside the cells (PAS, optical density) [7, 19]: remains at a basal level | intercellular edema (histology of limb muscle) [7, 19]: increase in intercellular edema | muscle bundle area (histology) [7, 19]: did not increase significantly | relative metabolic rate in hind limb ([7]; vs control (perfusion medium alone)): markedly reduces metabolic rate | biostatic effect in Xenopus laevis tadpoles ([8]; FIG. 8): reversible biostatic effect | concentration resulting in arrest of tadpole movement ([8]; Xenopus tadpoles): > 100 µM | movement of whole animals ([8]; high-dose administration): completely arrested | delay in impacting oxygen metabolism ([9]; 60 μM dose, dynamic dosing, 10 tadpoles/chamber, n=3): ~10 min | oxygen consumption and other metrics of metabolic rate ([9]; healthy tissues and Xenopus tadpoles, dose dependence): dose-dependent reduction in oxygen consumption | hypothermia [10]: induces hypothermia | hypothermia [11]: induce hypothermia | convulsions [12]: produces convulsions at high doses | NAD/NADH ratio [13]: significant increase

[2H]O[2H] [^2H2O, Deuterium oxide]
concentrations with no effect on swimming ([3]; tadpoles): < 50% | oxygen consumption of embryos ([1]; 50% ^2H2O, within hours of contact): reduced oxygen consumption | embryo length ([4]; 50% ^2H2O in 0.1×MMR): marked reduction in embryo length | adverse effects after recovery [4, 20]: do not exhibit adverse effects | developmental state after recovery [4, 20]: remain developmentally delayed | concentrations with no effect on tail length ([4]; Xenopus embryos): < 50% | concentrations that were toxic ([4]; Xenopus embryos, data not shown): > 70% | time to slowed swimming ([8]; 50% ^2H2O): ≤ 10 min | concentrations that were toxic ([8]; tadpoles): > 70% | swimming after return to normal media ([8]; without ^2H2O, data not shown): returned to normal | survival in low-oxygen environment at the indicated consumption rate [14]: > 30 h

OC[C@H]1O[C@@](CO)(OC[C@@]2(O[C@H]3O[C@H](CO)[C@@H](O)[C@H](O)[C@H]3O)O[C@H](CO)[C@@H](O)[C@@H]2O)[C@@H](O)[C@@H]1O [kestose]
recovery from biostasis induced via Donepezil [15]: faster recovery
